Measurements from patent publication US5554653A, “Inhibitors of HIV protease useful for the treatment of AIDS” (Eli Lilly and Company, priority 1992, dated 1996).
≈ marks a conversion by molar mass, not a printed value.

Target: T1, HIV-1 protease (Human immunodeficiency virus type 1 group M subtype B, UniProt P04585)
T1 construct: Purified HIV-1 protease was obtained as described above; made in house; host or cells: E. coli K12 L507/pHP10D (NRRL B-18560)
Experiment: biochemical
Assay type: biochemical
Settings: for IC50: read-out: Fluorescence Assay IC50 (converted); for IC3: read-out: Fluorescence Assay IC3
Experimental: C. Preparation of Protease Fraction
A culture of E. coli K12 L507/pHP10D was grown to mid-log phase at 32° C. in LB media containing 12.5 μg/ml tetracycline. The cultivation temperature was quickly elevated to 40° C. to induce gene expression, and the cells were allowed to grow for 2.5 hours at this temperature before the culture was quickly chilled on ice. The cells were centrifuged and the cell pellet was resuspended in 20 mL 50 mmol MES buffer (pH 6.0) containing 1 mmol EDTA, 1 mmol DTT, 1 mmol PMSF and 10% glycerol ("Buffer A"). Cells were lysed by sonication using a Fischer Model 300 Dismembrator and a microtip probe. Following centrifugation at 27,000×g, the supernatant was diluted to a total volume of 60 mL with Buffer A and loaded onto a 2.0×19 cm QAE-Sepharose column (1 mL/min, 4° C.), that had been equilibrated in Buffer A. The column was washed isocratically for 180 min and then eluted with a gradient eluent of 0-1.0M sodium chloride in Buffer A over 120 min. Enzymatic activity was measured by HPLC using the synthetic peptide SQNYPIV as described in Margolin et al., Biochem. Biophys. Res. Commun., 167, 554-560 (1990); the production of the p1 peptide (SQNY) was measured.
The active fractions were combined, made 1.2M in ammonium sulfate, and applied to a 2.0×18 cm hexyl agarose column that had been equilibrated in Buffer A containing 1.2M ammonium sulfate. The sample was loaded at a flow rate of 1 mL/min at 4° C., washed with the equilibration buffer for 240 min (1 mL/min) and then eluted using a reverse linear gradient of 1.2-0M ammonium sulfate in Buffer A for 120 min at the same flow rate. The column was then washed isocratically in Buffer A for 120 min.
The active fractions were combined, concentrated to 10 mL using an Amicon stirred cell with a YM-10 membrane and then applied to a MonoS cation exchange column (1.0×10 cm) that had been equilibrated in Buffer A. The sample was loaded at a flow rate of 1 mL/min at 25° C. After washing isocratically for 30 min, the protease was eluted using a linear gradient of 0-0.45M sodium chloride in Buffer A over 40 min. The column was washed isocratically in Buffer A containing 0.45M sodium chloride for 30 min.
The active fractions were combined and concentrated to 200 μL using an Amicon stirred cell and a YM-10 membrane and then the protease was applied to a Superose 6 size exclusion column equilibrated in Buffer A containing 0.1M sodium chloride.
The purified peptide was labeled with a fluorescent marker at the C-terminal end for use in the Pandex assay. N^α -Biotin-[…]OH SEQ ID NO:3. (1.206 g, 0.936 mmol) was dissolved in 100 mL of 0.1M sodium borate, pH 9.5. Then, a solution of 3 g (7.7 mmol) of fluorescein isothiocyanate in 15 mL dimethyl sulfoxide was added to the reaction mixture in 10 equal portions over two hours. The resulting mixture was allowed to react for one hour after the final addition. The solution was adjusted to pH 3 using 5N hydrochloric acid, resulting in the formation of a precipitate which was removed by centrifugation.
E. Fluorescence HIV-1 Protease Inhibitor Assay
The following buffers and solutions are used in the Fluorescence HIV-1 Protease Inhibitor Assay:
MES-ALB Buffer: 0.05M 4-morpholineethane
Avidin Coated 0.1% solution of Fluoricon
Beads Solution: Avidin Assay Particles
(Avidin conjugated to solid
polystyrene beads, 0.6-0.8
microns in diameter in TBSA
27 IU/mL of purified HIV-1
protease in MES-ALB buffer
(1 IU equals the amount of
enzyme required to hydrolyze
1 μmole of substrate per
To each well of a round bottom, 96-well plate is added 20 μL of the Enzyme Solution followed by 10 μL of the compound to be evaluated in a 20% aqueous dimethylsulfoxide solution. Purified HIV-1 protease was obtained as described above.

| SMILES | IC50 [nM] | also measured |
| --- | --- | --- |
| CC(C)(C)NC(=O)c1ccccc1C[C@@H](O)[C@H](Cc1ccccc1)NC(=O)[C@@H](CSc1ccc2ccccc2c1)NS(C)(=O)=O [Example 17A, [2R-(2R*, 3S*, 6S*)]-N-t-Butyl-2-[2-hydroxy-3-phenylmethyl-4-aza-5-oxo-6-N (methylsulfonyl)amine-7-naphth-2-ylthio]heptyl benzamide] | 1.1 | – |
| CC(C)(C)NC(=O)c1ccccc1C[C@@H](O)[C@H](Cc1ccccc1)NC(=O)[C@@H](CS(=O)(=O)c1ccc2ccccc2c1)NS(C)(=O)=O [Example 17B, [2R-(2R*,3S*,6S*)]-N-t-Butyl-2-[2-hydroxy-3-phenylmethyl-4-aza-5-oxo-6-N(methylsulfonyl)amino-7-naphth-2-ylsulfonyl]heptyl benzamide] | 0.191 | – |
| CC(=O)N[C@H](CSCc1ccccc1)C(=O)N[C@@H](Cc1ccccc1)[C@H](O)Cc1ccccc1C(=O)NC(C)(C)C [Example 18A, [2R-(2R*, 3S*, 6S*)]-N-t-Butyl-2-[2-hydroxy-3-phenylmethyl-4-aza-5-oxo-6-N (ethanoyl)amino-7-benzylthio]heptyl benzamide] | 12.9 | – |
| CC(=O)N[C@H](CS(=O)(=O)Cc1ccccc1)C(=O)N[C@@H](Cc1ccccc1)[C@H](O)Cc1ccccc1C(=O)NC(C)(C)C [Example 18B, [2R-(2R*, 3S*, 6S*)]-N-t-Butyl-2-[2-hydroxy-3-phenylmethyl-4-aza-5-oxo-6-N(ethanoyl)amino-7-benzylsulfonyl]heptyl benzamide] | 55.9 | – |
| CC(C)(C)NC(=O)c1ccccc1C[C@@H](O)[C@H](Cc1ccccc1)NC(=O)[C@@H](CSCc1ccccc1)NC(=O)OC(C)(C)C [Example 19A, [2R-(2R*, 3S*, 6S*)]-N-t-Butyl-2-[2-hydroxy-3-phenylmethyl-4-aza-5-oxo-6-N (t-butoxycarbonyl)amino-7-benzylthio]heptyl benzamide] | – | IC3: 1 µg/mL |
| CC(C)(C)NC(=O)c1ccccc1C[C@@H](O)[C@H](Cc1ccccc1)NC(=O)[C@H](N)CSCc1ccccc1 [Example 19B, [2R-(2R*, 3S*, 6S*)]-N-t-Butyl-2-[2-hydroxy-3-phenylmethyl-4-aza-5-oxo-6-amino-7-benzylthio]heptyl benzamide] | – | IC16 (read-out: Fluorescence Assay IC16): 1 µg/mL |
| CC(C)(C)NC(=O)c1ccccc1C[C@@H](O)[C@H](Cc1ccccc1)NC(=O)[C@@H](CSCc1ccccc1)NS(C)(=O)=O [Example 19C, [2R-(2R*,3S*,6S*)]-N-t-Butyl-2-[2-hydroxy-3-phenylmethylyl-4-aza-5-oxo-6-N(methylsulfonyl)amino-7-benzylthio]heptyl benzamide] | 3.6 | – |
| CC(C)(C)NC(=O)c1ccccc1C[C@@H](O)[C@H](Cc1ccccc1)NC(=O)[C@@H](C[S+]([O-])Cc1ccccc1)NS(C)(=O)=O (stereo partly drawn) [Example 19D, [2R-(2R*,3S*,6S*)]-N-t-Butyl-2-[2-hydroxy-3-phenylmethyl-4-aza-5-oxo-6-N(methylsulfonyl)amine-7-benzylsulfinyl]heptyl benzamide] | 2.23 | – |
| CC(C)(C)NC(=O)c1ccccc1C[C@@H](O)[C@H](Cc1ccccc1)NC(=O)[C@@H](CS(=O)(=O)Cc1ccccc1)NS(C)(=O)=O [Example 19E, [2R-(2R*,3S*,6S*)]-N-t-Butyl-2-[2-hydroxy-3-phenylmethyl-4-aza-5-oxo-6-N(methylsulfonyl)amino-7-benzylsulfonyl]heptyl benzamide] | 4.66 | – |
| CC(=O)N[C@@H](CSc1ccccc1)C(=O)N[C@@H](Cc1ccccc1)[C@H](O)Cc1ccccc1C(=O)NC(C)(C)C [Example 20B, [2R-(2R*,3S*,6R*)]-N-t-Butyl-2-[2-hydroxy-3-phenylmethyl-4-aza-5-oxo-6-N(ethanoyl)amino-7-phenylthio]heptyl benzamide] | – | IC8 (read-out: Fluorescence Assay IC8): 1 µg/mL |
| CC(=O)N[C@H](CS(=O)(=O)c1ccccc1)C(=O)N[C@@H](Cc1ccccc1)[C@H](O)Cc1ccccc1C(=O)NC(C)(C)C [Example 20C, [2R-(2R*,3S*,6S*)]-N-t-Butyl-2-[2-hydroxy-3-phenylmethyl-4-aza-5-oxo-6-N(ethanoyl)amino-7-phenylsulfonyl]heptyl benzamide] | 4.88 | – |
| CSCC[C@H](NC(C)=O)C(=O)N[C@@H](Cc1ccccc1)[C@H](O)Cc1ccccc1C(=O)NC(C)(C)C [Example 21, [2R-(2R*,3S*,6S*)]-N-t-Butyl-2-[2-hydroxy-3-phenylmethyl-4-aza-5-oxo-6-N(ethanoyl)amino-8-methylthio]octyl benzamide] | – | IC45 (read-out: Fluorescence Assay IC45): 1 µg/mL (≈ 1.95 µM) |
| CC(C)(C)NC(=O)c1ccccc1C[C@@H](O)[C@H](Cc1ccccc1)NC(=O)[C@@H](CSc1ccccc1)NC(=O)OC(C)(C)C [Example 22A, [2R-(2R *,3S*,6S*)]-N-t-Butyl-2-[2-hydroxy-3-phenylmethyl-4-aza-5-oxo-6-N(t-butoxycarbonyl)amino-7-phenylthio]heptyl benzamide] | – | IC3: 2 µg/mL |
| CC(C)(C)NC(=O)c1ccccc1C[C@@H](O)[C@H](Cc1ccccc1)NC(=O)[C@H](N)CSc1ccccc1 [Example 22B, [2R-(2R*,3S*,6S*)]-N-t-Butyl-2-[2-hydroxy-3-phenylmethyl-4-aza-5-oxo-6-amino-7-phenylthio]heptyl benzamide] | – | IC3: 1 µg/mL |
| CC(C)(C)NC(=O)c1ccccc1C[C@@H](O)[C@H](Cc1ccccc1)NC(=O)[C@@H](CSc1ccccc1)NS(C)(=O)=O [Example 22C, [2R-(2R*,3S*,6S*)]-N-t-Butyl-2-[2-hydroxy-3-phenylmethyl-4-aza-5-oxo-6-N(methylsulfonyl)amino-7-phenylthio]heptyl benzamide] | 18.9 | – |
| CC(C)(C)NC(=O)c1ccccc1C[C@@H](O)[C@H](Cc1ccccc1)NC(=O)[C@@H](CS(=O)(=O)c1ccccc1)NS(C)(=O)=O [Example 22D, [2R-(2R*,3S*,6S*)]-N-t-Butyl-2-[2-hydroxy-3-phenylmethyl-4-aza-5-oxo-6-N(methylsulfonyl)amino-7-phenylsulfonyl]heptyl benzamide] | 2.54 | – |
| CC(C)(C)NC(=O)c1ccccc1C[C@@H](O)[C@H](Cc1ccccc1)NC(=O)[C@@H](C[S+]([O-])c1ccccc1)NS(C)(=O)=O (stereo partly drawn) [Example 22E, [2R-(2R*,3S*,6S*)]-N-t-Butyl-2-[2-hydroxy-3-phenylmethyl-4-aza-5-oxo-6-N(methylsulfonyl)amino-7-phenylsulfinyl]heptyl benzamide] | 0.978 | – |
| CC(C)(C)NC(=O)c1ccccc1C[C@@H](O)[C@H](Cc1ccccc1)NC(=O)[C@@H](CSc1ccc2ccccc2n1)NS(C)(=O)=O [Example 23C, [2R-(2R*,3S*,6S*)]-N-t-Butyl-2-[2-hydroxy-3-phenylmethyl-4-aza-5-oxo-6-N(methylsulfonyl)amino-7-quinolin-2-ylthio]heptyl benzamide] | 25.9 | – |
| CC(C)(C)NC(=O)c1ccccc1C[C@@H](O)[C@H](Cc1ccccc1)NC(=O)[C@@H](CS(=O)(=O)c1ccc2ccccc2n1)NS(C)(=O)=O [Example 23D, [2R-(2R*,3S*,6S*)]-N-t-Butyl-2-[2-hydroxy-3-phenylmethyl-4-aza-5-oxo-6-N(methylsulfonyl)amino-7-quinolin-2-ylsulfonyl]heptyl benzamide] | 1.18 | – |
| CC(C)(C)NC(=O)c1ccccc1C[C@@H](O)[C@H](Cc1ccccc1)NC(=O)[C@@H](C[S+]([O-])c1ccc2ccccc2n1)NS(C)(=O)=O (stereo partly drawn) [Example 23E, [2R-(2R*,3S*,6S*)]-N-t-Butyl-2-[2-hydroxy-3-phenylmethyl-4-aza-5-oxo-6-N(methylsulfonyl)amino-7-quinolin-2-ylsulfinyl]heptyl benzamide] | 4.06 | – |
